According to patent US20170224688A1, “Methods of Using BTK Inhibitors to Treat Dermatoses” (Acerta Pharma B.V., priority 2016, published 2017):

Columns and labels:
psoriasis [1] = conditions: patients treated for malignancies; cited from earlier work
[2] = tested on: signals through the B cell receptor; assay: In vitro potency in whole blood: CD69 on CD19+ B cells after anti-human IgD; type: cell-based; conditions: blood of four healthy donors, 2 h with compound, anti-human IgD 10 μg/mL 18 h, flow cytometry, read-out: EC50, inhibition of CD69 on gated CD19+ B cells in whole blood
Procedure: Blood from four healthy donors was incubated for 2 hours with the compounds shown over a concentration range, and then stimulated with anti-human IgD [10 μg/mL] for 18 hours. The mean fluorescent intensity (MFI) of CD69 (and CD86, data not shown) on gated CD19+ B cells was measured by flow cytometry.

hematologic malignancies = conditions: cited from earlier work
[3] = Preliminary evaluation of metabolism in plasma, bile, and urine; type: in vivo; conditions: rats, dogs, monkeys; preliminary evaluations
psoriasis [4] = assay: Clinical observation of psoriasis in CLL patients on study drug; type: in vivo, human
Excerpt: (§1) Clinical studies have shown that targeting the BCR signaling pathway by inhibiting BTK produces significant clinical benefit in patients with various types of leukemias and lymphomas.
The secondary objective of the clinical study is to evaluate tumor responses in patients treated with Formula (II).
The study scheme is a sequential cohort escalation. Each cohort consists of six subjects. The sample size of the study is 24 to 36 subjects, depending on dose escalation into subsequent cohorts. […] The dose level for Cohort 6 will be determined based on the safety and efficacy of Cohorts 1 to 5, and will not exceed 900 mg/day. Escalation will end with either the MTD cohort or three levels above full BTK occupancy, whichever is observed first. An additional arm of the study will explore 100 mg BID dosing.
The color of the capsules is Swedish orange. The route of administration is oral (per os, or PO). The dose regimen is once daily or twice daily, as defined by the cohort, on an empty stomach (defined as no food 2 hours before and 30 minutes after dosing).
(§2) Subject 1 in the clinical study of Example 12 is a CLL patient with a history of psoriatic skin disease. Subject 1 had psoriasis, without involvement of joints, and with diffuse plaques on their trunk and extremities. Their psoriasis was severe, with ˜30% body surface area (BSA) affected (>10% BSA is considered severe disease). They were treated over time with several systemic therapies including etanercept, adalimumab, and a 2010 clinical study of an experimental agent.
When treatment with Formula (2) was initiated, Subject 1's skin symptoms started to improve rapidly. […] By Cycle 10 (10 months on Formula (2)), their skin was clear. […] The only remainder was some scaling in the same areas that were once affected by psoriasis lesions.
Subject 2 was enrolled in a clinical study similar to that described above, and also experienced resolution of moderate-to-severe plaque psoriasis (a “florid” case) while on treatment with Formula (2). The subject's disease history included extensive body surface area involvement, mainly on the back and thighs, for most of their adult life.

[5] = Study of respiratory function (GLP safety pharmacology); conditions: rats, doses through 300 mg/kg (highest dose level)
[6] = Oral bioavailability (preclinical characteristics); conditions: in vivo
Excerpt: as §1

CYP enzymes = assay: Nonclinical CYP interaction studies; type: in vitro ADME
[7] = Glutathione binding and depletion in vitro; type: in vitro ADME
CYP3A4 = CYP3A4 (Homo sapiens, UniProt P08684); assay: Loss of parent drug as catalyzed by CYPs; type: in vitro ADME; conditions: in vitro
hepatocytes = assay: In vitro metabolism in hepatocytes with 14C-labeled drug; type: in vitro ADME, mouse, rat, dog, rabbit, monkey, and human
[8] = tested on: BCR activation markers CD69 and CD86; assay: In vivo potency: BCR activation markers after oral gavage; conditions: mice gavaged, sacrificed 3 h post-dose, BCR stimulated with IgM, flow cytometry (FIG. 1)
Procedure: Mice were gavaged at increasing drug concentration and sacrificed at one time point (3 h post-dose). BCR is stimulated with IgM and the expression of activation markers CD69 and CD86 are monitored by flow cytometry to determine EC50's.
CD86 and CD69 are cell surface proteins that are BCR activation markers. […] BCR was stimulated with IgM and the expression of activation marker CD69 and CD86 are monitored by flow cytometry and to determine EC50 values.

EGFR = EGFR (Homo sapiens, UniProt P00533); assay: EGF-induced EGFR phosphorylation in A431 cells (phosphoflow cytometry); conditions: at 10 μM, A431 human epidermoid cancer cell line
psoriasis [9] = assay: Treatment history of Subject 1's psoriasis; type: in vivo, human; conditions: Subject 1, before enrolling in the clinical study
Procedure: as §2

Sequence of CYP3A4 (P08684 whole entry, species assumed): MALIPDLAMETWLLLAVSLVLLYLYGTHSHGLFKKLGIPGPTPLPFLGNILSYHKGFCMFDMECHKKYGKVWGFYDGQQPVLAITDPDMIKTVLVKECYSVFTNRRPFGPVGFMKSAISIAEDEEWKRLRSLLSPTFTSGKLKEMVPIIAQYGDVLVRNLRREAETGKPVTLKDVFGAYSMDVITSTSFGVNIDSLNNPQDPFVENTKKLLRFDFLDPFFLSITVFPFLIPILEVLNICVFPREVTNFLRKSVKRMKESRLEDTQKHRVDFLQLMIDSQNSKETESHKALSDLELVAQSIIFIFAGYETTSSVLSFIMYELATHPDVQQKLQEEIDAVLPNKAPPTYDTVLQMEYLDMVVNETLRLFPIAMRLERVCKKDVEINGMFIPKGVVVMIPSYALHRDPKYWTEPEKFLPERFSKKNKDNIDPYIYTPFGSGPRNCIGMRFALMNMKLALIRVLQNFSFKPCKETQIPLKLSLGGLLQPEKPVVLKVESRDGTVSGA
Sequence of EGFR (P00533 25-1210): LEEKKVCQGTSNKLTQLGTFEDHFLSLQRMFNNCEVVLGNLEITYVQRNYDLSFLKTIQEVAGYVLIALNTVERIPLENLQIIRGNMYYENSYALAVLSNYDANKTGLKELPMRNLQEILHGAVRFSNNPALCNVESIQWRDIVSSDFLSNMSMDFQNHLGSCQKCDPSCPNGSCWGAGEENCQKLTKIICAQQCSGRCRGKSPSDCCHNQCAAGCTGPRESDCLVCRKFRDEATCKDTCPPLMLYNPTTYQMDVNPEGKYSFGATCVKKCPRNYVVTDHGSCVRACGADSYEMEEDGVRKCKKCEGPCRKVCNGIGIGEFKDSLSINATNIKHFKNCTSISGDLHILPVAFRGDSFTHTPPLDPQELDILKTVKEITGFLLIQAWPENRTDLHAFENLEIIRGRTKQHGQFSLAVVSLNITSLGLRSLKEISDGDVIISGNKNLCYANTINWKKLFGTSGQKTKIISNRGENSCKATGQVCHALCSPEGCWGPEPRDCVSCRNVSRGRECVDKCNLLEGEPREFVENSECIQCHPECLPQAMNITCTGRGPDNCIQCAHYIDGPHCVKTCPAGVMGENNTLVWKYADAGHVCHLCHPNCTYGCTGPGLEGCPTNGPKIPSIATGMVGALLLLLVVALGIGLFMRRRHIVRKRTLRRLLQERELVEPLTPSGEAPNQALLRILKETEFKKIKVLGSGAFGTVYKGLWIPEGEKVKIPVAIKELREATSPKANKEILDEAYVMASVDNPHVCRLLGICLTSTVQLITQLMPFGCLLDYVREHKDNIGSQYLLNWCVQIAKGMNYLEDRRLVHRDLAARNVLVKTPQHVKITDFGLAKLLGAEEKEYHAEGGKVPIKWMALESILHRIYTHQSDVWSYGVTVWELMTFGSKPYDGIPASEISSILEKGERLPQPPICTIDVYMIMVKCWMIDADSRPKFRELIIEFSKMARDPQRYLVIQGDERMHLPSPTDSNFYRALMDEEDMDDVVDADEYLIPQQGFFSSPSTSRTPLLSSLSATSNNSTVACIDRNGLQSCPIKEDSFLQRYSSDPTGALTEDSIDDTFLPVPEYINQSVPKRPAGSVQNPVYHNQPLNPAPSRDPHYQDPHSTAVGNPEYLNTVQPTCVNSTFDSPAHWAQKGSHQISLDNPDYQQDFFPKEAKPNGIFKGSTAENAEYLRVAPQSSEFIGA

Cc1ccc(NC(=O)c2ccc(CN3CCN(C)CC3)cc2)cc1Nc1nccc(-c2cccnc2)n1 [imatinib]
effect on psoriasis / skin (psoriasis [1]): may cause worsening of psoriasis

Cc1ccc(C(=O)Nc2ccc(CN3CCN(C)CC3)c(C(F)(F)F)c2)cc1C#Cc1cnc2cccnn12 [Ponatinib]
effect on psoriasis / skin (psoriasis [1]): causes an extreme degree of skin drying and induces an almost psoriasis-like disease

C=CC(=O)N1CCC[C@@H](n2nc(-c3ccc(Oc4ccccc4)cc3)c3c(N)ncnc32)C1 [Ibrutinib, 1-[(3R)-3-[4-amino-3-(4-phenoxyphenyl)-1H-pyrazolo[3,4-d]pyrimidin-1-yl]piperidin-1-yl]prop-2-en-1-one]
EC50 [2]: 6.1 nM | antitumor activity (hematologic malignancies; subjects with heavily pretreated non-Hodgkin lymphoma): substantial antitumor activity | maximum tolerated dose (MTD) (hematologic malignancies; within the tested dose range (through 840 mg)): No maximum tolerated dose (MTD) was apparent

Cc1nc(Nc2ncc(C(=O)Nc3c(C)cccc3Cl)s2)cc(N2CCN(CCO)CC2)n1 [Dasatinib]
effect on psoriasis / skin (psoriasis [1]): has not been reported to improve psoriasis

CC#CC(=O)N1CCC[C@H]1c1nc(-c2ccc(C(=O)Nc3ccccn3)cc2)c2c(N)nccn12 [Formula (II), (S)-4-(8-amino-3-(1-(but-2-ynoyl)pyrrolidin-2-yl)imidazo[1,5-a]pyrazin-1-yl)-N-(pyridin-2-yl)benzamide]
EC50 [2]: 8.2 nM | metabolic processes in plasma, bile, and urine [3]: oxidation, glutathione binding, and hydrolysis | psoriasis skin symptoms, first month of therapy (psoriasis [4]; Subject 1, CLL patient with severe psoriasis (~30% BSA), oral): some improvement | psoriasis, first 6 months of treatment (psoriasis [4]; Subject 1, oral): mostly resolved | skin status by Cycle 10 (10 months) (psoriasis [4]; Subject 1, oral): clear | moderate-to-severe plaque psoriasis after start of treatment (psoriasis [4]; Subject 2, similar clinical study): cleared quickly | respiratory function [5]: no treatment-related adverse effects | oral bioavailability [6]: significant oral bioavailability | drug-drug interaction potential through CYP enzymes (CYP enzymes): very unlikely to cause clinical drug-drug interactions | glutathione binding and depletion [7]: binds to glutathione but does not deplete glutathione | metabolizing CYP (loss of parent drug) (CYP3A4): metabolized by CYP3A4 | unique human metabolite (hepatocytes; hepatocytes of six species): No unique human metabolite was identified | metabolites in hepatocytes (hepatocytes; mouse, rat, dog, rabbit, monkey, human hepatocytes, 14C-labeled drug): two mono-oxidized metabolites and a glutathione conjugate | in vivo potency at inhibiting expression of activation markers CD69 and CD86 [8]: more potent at inhibiting expression of activation makers than ibrutinib | inhibition of in vitro EGFR phosphorylation (EGFR): no inhibition

C=CC(=O)Nc1cccc(Nc2nc(Nc3ccc(OCCOC)cc3)ncc2F)c1 [CC-292, N-(3-((5-fluoro-2-((4-(2-methoxyethoxy)phenyl)amino)pyrimidin-4-yl)amino)phenyl)acrylamide]
EC50 [2]: 121 nM

etanercept
response of psoriasis to earlier therapy (psoriasis [9]): initially responded
